The subject of experiment [1] is rat RXFP2. The experiment in a line: INSL3-stimulated cAMP assay in HEK293 with BacMam expression of rat RXFP2. The format is cell-based. To be noted: read-out: EC50 cAMP in HEK293 transiently expressing rat RXFP2. As for the experimental part:
Active compounds (RXFP2 HTRF IC50 < 100 µM, RXFP2 FLIPR IC50 < 100 µM) were profiled to determine selectivity and rat cross-reactivity (Fig. 2). The RXFP1 assay detected compound inhibition of relaxin EC80-induced cAMP in HEK293 transiently expressing human RXFP1 (hRXFP1). […] Only 7 of 104 compounds had rRXFP2 IC50 < 100 µM, indicating poorly conserved receptor binding sites across species. RXFP2 blockers were organized into two potential series, based on structural similarity. […] BRL-37274 and GSK618069 were identified as selective RXFP2 antagonists. […] Ultimately, poor chemical properties and low ligand efficiency limited further compound optimization (Table 1, Supplementary Figs. S6, S7).
The nucleotide sequences used in Bacmam transfections encoded RXFP protein as described in UniProt (Q9HBX9. RXFP1_human; Q8WXD0. RXFP2_human; Q5ECL0. RXFP2_rat). […]
(§1) cAMP generation was measured using the Lance Ultra cAMP kit as per manufacturer’s instructions (Perkin Elmer) in HEK293 cells transduced in tissue culture flasks with RXFP BacMam, incubated at 37 °C/5% CO2 for 18 h before assay. […] After a 30 min incubation, 4 µL of Lance detection reagent was added and the FRET signal read 1 h later using a TR-FRET-capable plate reader, with excitation at 340 nm and emission at 615 nm and 665 nm. […]
In general terms: Cyclic AMP is a second messenger, typically raised through Gs and lowered through Gi signalling.

Experiment [2] has as its target T1, RXFP2 (Homo sapiens, UniProt Q8WXD0). The experiment in a line: cell-based.
Description: Resulting molecules were counter screened against parental HEK293 to remove compounds inhibiting cAMP with < tenfold selectivity compared to RXFP2 expressing cells. An orthogonal readout was utilized to confirm RXFP2 antagonist activity; whereby RXFP2 was transiently expressed in HEK293 stably expressing a member of the Gαq G protein family (murine Gα16) to induce promiscuous G-protein coupling and subsequent calcium mobilization.
For the RXFP2 orthologue assay, calcium detection was measured using FLIPR assay technology in HEK293‐ MSRII Gα16 cells. Cells were resuspended in fresh cell culture media in the presence of RXFP2 BacMam and seeded at a density of 15,000 cells/well in 50 µL into black clear‐bottomed 384‐well plates and incubated at 37 °C/5% CO2 for 24 h prior to assay. Media from wells was aspirated and replaced with 30 µL/well of assay buffer (HBSS, 25 mM HEPES, pH 7.4) supplemented with dye-loading reagents (30 µM probenecid, 3 µM Fluo‐4 and 750 µM Brilliant Black). Plates were incubated for 1 h at 37 °C/5% CO2. Test compounds were added to dye-loaded cells at 10 µL/well and incubated for 10 min. Agonist stimulation was induced with the addition of 10 µL/well assay buffer supplemented with a final EC80 concentration of ligand (2.4 nM INSL3). Fluorescence was detected immediately using a FLIPR TETRA plate reader, with excitation at 488 nm and emission at 530 nm. […]
The target in experiment [3] is T2, rat RXFP2 (Rattus norvegicus, UniProt F7EMH8). The experiment in a line: INSL3-stimulated CYP11B1 mRNA expression in H295R stably expressing rat RXFP2. Further details: expressed in transfected cells. The format is cell-based. The conditions noted are these: 48 h of treatment; read-out: EC50 on CYP11B1 mRNA expression, H295R-rRXFP2. As to the method: (§2) RXFP2 antagonists were added to H295R-rRXFP2 before addition of INSL3 EC80 (3.5 nM) for 48 h, whereupon the cells and supernatants were collected. CYP11B1 and CYP11B2 mRNA were determined by qPCR and the RXFP2 blocker potencies were calculated (Fig. 5a). Fifteen antibodies have IC50s < 50 nM, and three of the top antibodies (1F2, 4G6, and 2D4) were selected for evaluation in steroid hormone secretion assays by ELISA.
(§3) Data entered as XY table, with x = [Inhibitor] (nM) and y = CYP11B2 or CYP11B1 fold change.

Experiment [4] has as its target T2, rat RXFP2. The experiment in a line: INSL3-stimulated CYP11B2 mRNA expression in H295R stably expressing rat RXFP2. It counts as cell-based. Further details: expressed in transfected cells. The conditions noted are these: 48 h of treatment; read-out: EC50 on CYP11B2 mRNA expression, H295R-rRXFP2. As to the method: as §2, §3
The target of experiment [5] is T2, rat RXFP2. The experiment in a line: INSL3-stimulated cAMP assay in HEK293 stably expressing rat RXFP2.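 Also: cAMP measured with an HitHunter kit in 384-well plates, 11-point dose–response curves up to 1 µM antibody, four-parameter variable-slope fit.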
The target of experiment [6] is T1, RXFP2. Kind of experiment: INSL3-stimulated cAMP assay in HEK293 stably expressing human RXFP2.
The target in experiment [7] is T1, RXFP2. Kind of experiment: INSL3-stimulated cAMP assay in HEK293 with BacMam expression of human RXFP2. It counts as cell-based. Further details: expressed in transfected cells; host or cells: HEK293-MSRII, BacMam transduction (MOI 5). The conditions noted are these: HTRF primary assay, read-out: EC50 cAMP in HEK293 expressing human RXFP2.
Source text: A high throughput screen (HTS) assay was developed using HEK293 cells transduced with RXFP2 via baculovirus-mediated gene transfer (BacMam)[40]. […] The HTS campaign identified 104 hits across 8 clusters showing blockade of hRXFP2.
The nucleotide sequences used in Bacmam transfections encoded RXFP protein as described in UniProt (Q9HBX9. RXFP1_human; Q8WXD0. RXFP2_human; Q5ECL0. RXFP2_rat). HEK293- MSRII cells were maintained in DMEM‐F12, supplemented with 10% fetal bovine serum (FBS) and L-glutamine at 37 °C/5% CO2. HEK293 stably expressing Gα16 were maintained in DMEM‐F12, supplemented with 10% FBS, L-glutamine and selection antibiotics at 37 °C/5% CO2. Transient receptor expression was achieved using modified baculoviruses (BacMam), generated according to manufacturer’s instructions using the Bac-to-Bac system (Invitrogen, UK) encoding hRXFP1, hRXFP2 or rRXFP2. Cells were transduced with RXFP-BacMam at an optimized multiplicity of infection (MOI) of 5.
as §1

Bridge positions count the residues as written; N and C are the ends. Ends that are not written are not given here. I, II: the chains in the order shown.

T2 sequence (F7EMH8 20-737): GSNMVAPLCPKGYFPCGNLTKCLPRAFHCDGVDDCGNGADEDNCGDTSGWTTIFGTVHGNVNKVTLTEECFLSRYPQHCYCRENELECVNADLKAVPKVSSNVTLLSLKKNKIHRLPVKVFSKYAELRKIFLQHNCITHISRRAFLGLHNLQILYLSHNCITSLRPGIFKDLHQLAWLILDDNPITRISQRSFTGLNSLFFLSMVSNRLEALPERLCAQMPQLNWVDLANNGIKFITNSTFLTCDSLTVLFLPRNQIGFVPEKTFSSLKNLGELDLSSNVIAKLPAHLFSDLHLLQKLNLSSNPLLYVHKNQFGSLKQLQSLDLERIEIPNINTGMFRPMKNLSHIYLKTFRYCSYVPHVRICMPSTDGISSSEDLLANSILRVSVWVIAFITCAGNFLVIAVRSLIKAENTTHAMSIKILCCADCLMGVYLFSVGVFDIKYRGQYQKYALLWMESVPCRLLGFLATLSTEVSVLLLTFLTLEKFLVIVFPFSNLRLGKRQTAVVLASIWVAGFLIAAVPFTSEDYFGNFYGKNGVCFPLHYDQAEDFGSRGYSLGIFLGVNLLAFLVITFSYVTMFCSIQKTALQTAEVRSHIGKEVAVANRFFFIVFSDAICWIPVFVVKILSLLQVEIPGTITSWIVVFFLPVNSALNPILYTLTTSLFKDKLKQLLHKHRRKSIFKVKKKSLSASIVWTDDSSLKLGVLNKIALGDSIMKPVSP
T1 sequence (Q8WXD0 whole entry): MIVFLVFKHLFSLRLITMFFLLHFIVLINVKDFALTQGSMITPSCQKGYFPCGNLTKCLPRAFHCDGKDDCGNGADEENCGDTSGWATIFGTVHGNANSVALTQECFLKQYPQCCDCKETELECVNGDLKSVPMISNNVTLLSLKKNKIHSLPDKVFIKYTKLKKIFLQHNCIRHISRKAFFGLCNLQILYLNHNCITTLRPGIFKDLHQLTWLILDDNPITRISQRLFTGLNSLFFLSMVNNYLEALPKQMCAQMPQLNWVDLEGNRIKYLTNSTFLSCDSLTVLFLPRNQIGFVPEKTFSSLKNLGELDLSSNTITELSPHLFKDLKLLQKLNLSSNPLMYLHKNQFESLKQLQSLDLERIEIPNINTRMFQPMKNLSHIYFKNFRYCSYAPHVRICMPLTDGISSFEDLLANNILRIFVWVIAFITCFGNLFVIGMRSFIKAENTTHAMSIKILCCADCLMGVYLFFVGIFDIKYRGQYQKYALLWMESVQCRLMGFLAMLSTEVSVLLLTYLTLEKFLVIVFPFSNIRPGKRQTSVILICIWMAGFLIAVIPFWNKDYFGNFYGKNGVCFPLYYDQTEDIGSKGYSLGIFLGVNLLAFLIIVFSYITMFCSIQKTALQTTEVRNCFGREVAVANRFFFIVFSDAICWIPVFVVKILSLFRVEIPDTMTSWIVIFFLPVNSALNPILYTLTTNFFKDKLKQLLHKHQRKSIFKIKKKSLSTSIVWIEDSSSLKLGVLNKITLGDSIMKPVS

Broadly, the EC50 is the concentration that produces a half-maximal response. As for “I: PTPEMREKLCGHHFVRALVRVCGGPRWSTEA / II: AAATNPARYCCLSGCTQQDLLTLCPY (disulfide I:10-II:11, I:22-II:24, II:10-II:15) [INSL3, Insulin-like peptide 3]”, the EC50 in the experiment on rat RXFP2 [1] stood at 13 nM; at RXFP2 [2], 13.4 nM; on rat RXFP2 [3], 0.3 nM; on rat RXFP2 [4], 0.4 nM; on rat RXFP2 [5] it was 8.4 nM; at RXFP2 [6], 2.9 nM. The EC50 at RXFP2 [7] was found to be 0.048 nM.

For the origin of these results see PMC11162469, “Discovery of RXFP2 genetic association in resistant hypertensive men and RXFP2 antagonists for the treatment of resistant hypertension” (Scientific Reports, 2024).
